The subject of assay [1] is MCF-7 breast cancer cells. In words: Cell Titer 96 cell proliferation assay, 4-day drug exposure. It is filed as cell-based. The procedure:
(§1) MCF-7 (ER+) and MDA-MB-231 (ER−) breast cancer cells were obtained from the American Type Culture Collection (Rockville, Md.). Cells were routinely cultured in 25 cm^2 culture flasks in Eagle's minimum essential medium (EMEM) with Hepes buffer (20 mM). This medium was supplemented with L-glutamine (2 mM), sodium hydrogen carbonate (10 mM), 1% non-essential amino acids and 5% (v/v) foetal calf serum (FCS). Before adding test compounds, cells were washed with phosphate-buffered saline (PBS) and treatments added in phenol-red free medium containing 2% stripped FCS and supplements. The effects of 2-MeOE1 or 2-MeOEMATE on the growth of MCF-7 cells was assessed using a Cell Titer 96 cell proliferation assay (Promega, Southampton, Hants, UK) according to the manufacturers' instructions. For this, cells (5000 per well) were cultured in medium containing phenol-red and 10% FCS and were exposed to a drug for 4 days before the assay was performed. For MDA-MB-231 cells, cell numbers were determined using a Coulter counter.

Assay [2] has as its system MCF-7 breast cancer cells. In words: Cell morphology by photomicrographs. The format is cell-based. The conditions noted are these: 1 μM, 24 h. How it is done:
as §1
(§2) Photomicrographs of control and treated cells were taken under normal conditions of light and exposure using an Olympus SL35 Type 12 camera under an Olympus CK2 microscope (×100 magnification).

The subject of assay [3] is breast tumour-derived fibroblasts. As to the kind of experiment: Morphology and cell number (Coulter counter) of fibroblasts. The format is cell-based. The conditions noted are these: 24 h. How it is done:
For the culture of fibroblasts, resected breast tumour tissue was minced and incubated in EMEM for 18-24 h at 37° C. with collagenase (200 μg/ml). The dispersed cells were harvested by centrifugation and washed twice with medium to remove collagenase. Dispersed cells were seeded into culture flasks and grown to confluence before passaging on a weekly basis. For experimental purposes 12 well multi-well plates or 25 cm^2 flasks were seeded with fibroblasts and grown to 70-80% confluency. Cells were washed with PBS and exposed to drugs for 24 h before determining cell numbers using a Coulter counter.
as §2

Another assay relates to MCF-7 cells. In words: TUNEL analysis of apoptosis. It is filed as cell-based. The conditions noted are these: 10 μM, 48 h. From the text: The ability of 2-MeOEMATE to induce apoptosis in MCF-7 cells was examined by TUNEL analysis using an in situ cell death detection kit (Boehringer Manheim UK Ltd., Lewes, East Sussex, UK). Cells were fixed and permeabilised according to the manufacturers' instructions. Stained apoptotic cells were quantitated by flow cytometry.

Assay [4] deals with nitrosomethylurea-induced mammary tumours. In words: Growth of NMU-induced mammary tumours in intact rats. It is filed as in vivo, rat. The procedure: The effect of 2-MeOEMATE on mammary tumour growth was examined in a preliminary study using Ludwig rats (Harlan Olac, Bicester, UK) in which tumours were induced by inoculation of NMU. Tumour development was monitored regularly and when 0.5-1.0 cm^3 in volume, animals received vehicle (propylene glycol, 200 μl/day, p.o.), 2-MeOEMATE (20 mg/kg/day, p.o.) or 2-MeOE1 (20 mg/kg/day, p.o.) daily for an 11 day period. Tumour length and width was measured with callipers and tumour volumes calculated as described (21).

The next assay relates to MCF7 cells. As to the kind of experiment: Proportion of cells in mitosis (PI stained cytospins, confocal microscopy). The format is cell-based. The conditions noted are these: 24 hours (control 4%). How it is done:
To determine the proportion of cells in mitosis, drug treated cells were collected by trypsinisation and cytospins prepared. Cells were fixed in ice cold methanol for 5 minutes, air dried and DNA was stained using propidium iodide (PI) (0.1 mg/ml in phosphate buffered saline (PBS) containing 10% (v/v) newborn calf serum and 0.05% (w/v) sodium azide). Cells were analysed by confocal microscopy using a Zeiss Axiovert 100 M microscope equipped with the LSM 510 confocal system (Zeiss, Jena, Germany).
Effect of estrone derivatives on mitosis in MCF7 cells. MCF7 cells were treated with the indicated compounds for 24 hours. Cells were recovered by trypsinisation and cytospins prepared. DNA was stained with PI and cells in mitosis (i.e., with condensed chromosomes) determined as a percentage of total cells.

For the next assay, the target named is T1, steroid sulphatase (Homo sapiens, UniProt P08842).
T1 sequence (P08842 22-583): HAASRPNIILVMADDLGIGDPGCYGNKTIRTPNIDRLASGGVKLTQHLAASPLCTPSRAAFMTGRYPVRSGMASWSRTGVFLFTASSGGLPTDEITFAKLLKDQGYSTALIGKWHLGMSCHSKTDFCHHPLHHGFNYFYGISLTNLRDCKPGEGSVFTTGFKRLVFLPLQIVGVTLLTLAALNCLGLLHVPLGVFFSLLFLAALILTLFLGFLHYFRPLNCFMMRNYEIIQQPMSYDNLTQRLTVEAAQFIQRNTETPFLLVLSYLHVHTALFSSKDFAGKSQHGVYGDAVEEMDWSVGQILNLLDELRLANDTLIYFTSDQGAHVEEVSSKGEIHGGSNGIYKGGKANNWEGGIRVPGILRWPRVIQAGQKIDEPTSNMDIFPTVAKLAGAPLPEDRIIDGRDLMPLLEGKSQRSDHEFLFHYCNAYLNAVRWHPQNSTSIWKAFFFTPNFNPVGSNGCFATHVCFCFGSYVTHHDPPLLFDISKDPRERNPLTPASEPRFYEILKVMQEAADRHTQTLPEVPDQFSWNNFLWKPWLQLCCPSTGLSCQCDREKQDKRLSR
Conditions: compared with EMATE (18, 19); cited from earlier work.

For assay [5] the following is noted: (18, 19); cited from earlier work.
Where [6] appears, read: Homo sapiens, MCF7, 96 h, read-out: inhibition of proliferation of MCF-7 cells.

Values joined by “and” are separate entries in the source; they are usually repeats but may differ in a detail not shown here. Equal values may be shown once.

For `COc1cc2c(cc1OS(N)(=O)=O)CCC1C2CC[C@]2(C)C(=O)CCC12` (some centres unmarked) [2-MeOEMATE, 2-methoxyoestrone-3-O-sulphamate], in assay [1] (10 μM, 4 days), the “inhibition of proliferation of MCF-7 cells” value was “no further effect on cell proliferation”. In assay [1] (setting [6]), the inhibition at 0.1 µM is 29%. In addition, in assay [1] (setting [6]), the inhibition at 1 µM stood at 52%. Besides, the “effect on cell morphology” value in assay [2] is “significant increase in the number of rounded and detached cells”. Also, the results for the “effect on fibroblast morphology” value in assay [3] (1 μM) and in assay [3] (5 μM) were “little effect on cell morphology” and “rounding of a significant proportion of fibroblasts”, respectively. Further, the “effect on the number of fibroblasts” value in assay [3] is “did not reduce the number of fibroblasts”. The “fluorescently labelled (TUNEL positive) cells as proportion of the cell population” value in the assay on MCF-7 cells is given as “approximately 10%”. In assay [4] (20 mg/kg/day, p.o., 11 days, individual animals), the “reduction in tumour volume” value is “almost complete regression of ⅔ tumours and 8% and tumours regressed rapidly and were barely palpable and regressed almost completely”. For the same molecule, the “regrowth of regressed tumours” value in assay [4] (monitored for a further 33 days after 11-day dosing) is “no regrowth of tumours was detected”. For the same molecule, the “mitotic cells, percentage of total cells” value with MCF7 cells (500 nM) turned out to be 26%; with MCF7 cells (5 μM), 38%. For the same molecule, on steroid sulphatase, the “potency as a steroid sulphatase inhibitor” value was “equipotent with EMATE”. The oestrogenicity entry in assay [5] is “devoid of oestrogenicity”.

(Values after patent US7078395B1, “Methods for treating or preventing cancer by preventing, inhibiting or arresting cell cycling” (priority 1999, dated 2006).)
